Biological target: T1, PSMA (prostate-specific membrane antigen); glutamate carboxypeptidase II (GCPII) (Homo sapiens, UniProt Q04609)
T1 construct: gene FOLH1; native full-length type II transmembrane protein on intact LNCaP cells; 750 amino acids
Assay: competitive radioligand assay on LNCaP cells
Assay type: cell-based
Settings: competition with 0.75 nM [68Ga]Ga-PSMA-10, 45 min
Text: competitive radioligand assay on LNCaP cells on PSMA (prostate-specific membrane antigen); glutamate carboxypeptidase II (GCPII)

T1 sequence (Q04609 whole entry): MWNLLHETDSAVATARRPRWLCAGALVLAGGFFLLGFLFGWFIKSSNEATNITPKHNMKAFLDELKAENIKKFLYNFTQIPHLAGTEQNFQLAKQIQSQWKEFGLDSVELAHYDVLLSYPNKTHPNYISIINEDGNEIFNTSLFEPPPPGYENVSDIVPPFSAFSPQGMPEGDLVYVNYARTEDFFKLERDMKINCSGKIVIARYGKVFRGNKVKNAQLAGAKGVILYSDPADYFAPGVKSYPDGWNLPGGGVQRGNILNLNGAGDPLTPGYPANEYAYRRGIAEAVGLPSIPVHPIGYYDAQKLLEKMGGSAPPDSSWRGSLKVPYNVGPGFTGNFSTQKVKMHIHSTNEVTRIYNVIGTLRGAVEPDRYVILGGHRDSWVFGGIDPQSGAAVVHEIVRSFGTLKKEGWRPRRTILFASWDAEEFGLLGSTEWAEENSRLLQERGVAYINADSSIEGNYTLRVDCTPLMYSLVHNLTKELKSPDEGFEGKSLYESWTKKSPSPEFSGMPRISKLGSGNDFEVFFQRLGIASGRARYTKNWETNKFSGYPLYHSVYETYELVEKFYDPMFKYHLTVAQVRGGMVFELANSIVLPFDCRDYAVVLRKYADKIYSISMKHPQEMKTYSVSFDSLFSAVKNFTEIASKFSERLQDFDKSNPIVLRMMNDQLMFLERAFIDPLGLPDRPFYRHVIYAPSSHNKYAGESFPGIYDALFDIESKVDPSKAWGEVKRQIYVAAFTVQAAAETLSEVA

Compound `O=C(O)CC[C@H](NC(=O)N[C@@H](CCCCNC(=O)[C@H](Cc1ccc2ccccc2c1)NC(=O)[C@H]1CC[C@H](CNC(=O)[C@H](CCCCNc2c(NCCC(O)(P(=O)(O)O)P(=O)(O)O)c(=O)c2=O)NC(=O)CN2CCN(CC(=O)O)CCN(CC(=O)O)CCN(CC(=O)O)CC2)CC1)C(=O)O)C(=O)O` [compound 13, DOTA-L-Lys(SA.Pam)-PSMA-617] has a Ki (metal-free ligand) of 52.6 ± 3.5 nM.

In the case of `O=C(O)CC[C@H](NC(=O)N[C@@H](CCCCNC(=O)[C@H](Cc1ccc2ccccc2c1)NC(=O)[C@H]1CC[C@H](CNC(=O)CN2CCN(CC(=O)O)CCN(CC(=O)O)CCN(CC(=O)O)CC2)CC1)C(=O)O)C(=O)O` [PSMA-617], the Ki (reference compound, footnote: IC50 values can be found in the earlier paper of the same first author (ref 48), cited from earlier work) is given as 6.9 ± 1.3 nM.

For `NCCCC[C@H](NC(=O)CN1CCN(CC(=O)O)CCN(CC(=O)O)CCN(CC(=O)O)CC1)C(=O)NC[C@H]1CC[C@H](C(=O)N[C@@H](Cc2ccc3ccccc3c2)C(=O)NCCCC[C@H](NC(=O)N[C@@H](CCC(=O)O)C(=O)O)C(=O)O)CC1` [compound 12, DOTA-L-Lys-PSMA-617], the Ki (metal-free ligand) was 19.7 ± 3.3 nM.
